Measurements as given in US20120035069A1, “PROGNOSIS OF BREAST CANCER PATIENTS BY MONITORING THE EXPRESSION OF TWO GENES” (priority 2009, published 2012).

Key:
MDA-MB-231 cells [1] = experiment: Matrigel invasion (evasion) assay; assay type: cell-based, human; settings: SB431542 5 μM; control MDA-MB-231 cells embedded in a drop of Matrigel
Description: (C) Assay for invasive activity of MDA-MB-231 cells embedded in a drop of matrigel. Panels show pictures of the same field at different time points. Dotted is lines highlight the edges of the drop. Only control cells are able to evade from the Matrigel® (arrows). This process is dependent on TGFβ signaling as it is blocked by treatment with the TGFβR1 inhibitor SB431542 (5 μM). MDA shp53 cells are impaired in matrix degradation and evasion.
For matrigel invasion assay shown in FIG. 2C, MDA-MB-231 and derivative cell lines were resuspended in drops ([…]) of Matrigel Growth Factor Reduced (BD Biosciences), diluted 1:2 in DMEM/F12.

MDA-MB-231 cells [2] = experiment: Transwell migration assay; assay type: cell-based, human; settings: control MDA-MB-231 cells; TGFβ1 5 ng/ml
Description: Transwell migration assay were performed in 24 well PET inserts (Falcon […] pore size) for migration assays. For MDA-MB-231, cells were plated in 10 cm dishes, transfected with siRNA and, after 8 hours, serum starved overnight. Then, 50000 or 100000 cells were plated in transwell inserts (at least 3 replicas for each sample) and either left untreated or treated with TGFβ1 (5 ng/ml). For H1299, cells is were plated in the transwell in 10% serum but then changed to 0.2% serum. For both cell lines, cells in the upper part of the transwells were removed with a cotton swab; migrated cells were fixed in PFA 4% and stained with Crystal Violet 0.5%. Filters were photographed and the total number of cells counted. Every experiment was repeated at least 3 times independently.

## NC(=O)c1ccc(-c2nc(-c3ccc4c(c3)OCO4)c(-c3ccccn3)[nH]2)cc1 [SB431542]
MDA-MB-231 cells [1]
  evasion of cells from the Matrigel drop (TGFβ-dependent invasive activity): blocked

## TGFβ: TGFβ provided from Peprotech, used to treat cells
MDA-MB-231 cells [2]
  migration through transwell in response to TGFβ: potent promigratory response
